Two molecules from article doi:10.1101/2022.12.28.522074v1, “Redesigning methionyl-tRNA synthetase for β-methionine activity with adaptive landscape flattening and experiments” (biorxiv, 2022) can be followed below.

What all share (experiment): intrinsic fluorescence titration at equilibrium
Holding throughout (format): binding

In assay [1] the target is T1, MetRS M547 (His-tagged monomeric E. coli MetRS) (Escherichia coli, UniProt P00959, I298C).
T1 construct: gene metG; M547: C-terminally truncated monomeric fragment (about 547 residues), His-tagged, pET15blpa, expressed in E. coli BLR(DE3)
T1 sequence (P00959 2-548 I298C): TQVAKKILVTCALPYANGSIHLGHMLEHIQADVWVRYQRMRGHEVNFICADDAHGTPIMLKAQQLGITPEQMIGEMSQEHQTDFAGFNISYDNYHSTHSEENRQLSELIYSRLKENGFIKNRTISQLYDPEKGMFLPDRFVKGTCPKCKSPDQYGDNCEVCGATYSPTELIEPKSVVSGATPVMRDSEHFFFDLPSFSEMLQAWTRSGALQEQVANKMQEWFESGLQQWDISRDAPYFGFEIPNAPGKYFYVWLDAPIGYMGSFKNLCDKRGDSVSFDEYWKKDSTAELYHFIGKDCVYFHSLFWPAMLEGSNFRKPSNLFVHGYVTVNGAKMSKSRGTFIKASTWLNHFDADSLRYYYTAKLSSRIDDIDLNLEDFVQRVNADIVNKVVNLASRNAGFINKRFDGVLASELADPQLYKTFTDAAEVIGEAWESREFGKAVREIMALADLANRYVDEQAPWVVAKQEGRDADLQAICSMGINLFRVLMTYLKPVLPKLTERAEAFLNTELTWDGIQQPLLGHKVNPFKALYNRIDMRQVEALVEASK
The source says:
(§1) intrinsic fluorescence titration at equilibrium on MetRS M547 (His-tagged monomeric E. coli MetRS)

Assay [2] has as its target T2, MetRS M547 (His-tagged monomeric E. coli MetRS) (Escherichia coli, UniProt P00959).
T2 construct: gene metG; M547: C-terminally truncated monomeric fragment (about 547 residues), His-tagged, pET15blpa, expressed in E. coli BLR(DE3)
T2 sequence (P00959 2-548): T1 sequence (P00959 2-548 I298C) with C297I
Excerpt: as §1

In assay [3] the target is T3, MetRS M547 (His-tagged monomeric E. coli MetRS) (Escherichia coli, UniProt P00959, I298C/L14S).
T3 construct: gene metG; M547: C-terminally truncated monomeric fragment (about 547 residues), His-tagged, pET15blpa, expressed in E. coli BLR(DE3)
T3 sequence (P00959 2-548 L14S/I298C): T1 sequence (P00959 2-548 I298C) with L13S
Excerpt: as §1

In assay [4] the target is T4, MetRS M547 (His-tagged monomeric E. coli MetRS) (Escherichia coli, UniProt P00959, I298C/L14M).
T4 construct: gene metG; M547: C-terminally truncated monomeric fragment (about 547 residues), His-tagged, pET15blpa, expressed in E. coli BLR(DE3)
T4 sequence (P00959 2-548 L14M/I298C): T1 sequence (P00959 2-548 I298C) with L13M
Excerpt: as §1

In assay [5] the target is T5, MetRS M547 (His-tagged monomeric E. coli MetRS) (Escherichia coli, UniProt P00959, I298C/L14C).
T5 construct: gene metG; M547: C-terminally truncated monomeric fragment (about 547 residues), His-tagged, pET15blpa, expressed in E. coli BLR(DE3)
T5 sequence (P00959 2-548 L14C/I298C): T1 sequence (P00959 2-548 I298C) with L13C
Excerpt: as §1

Substitutions are numbered along the chain they refer to. Like-named read-outs stand apart in the source and are kept apart here.

On to `CSCC[C@H](N)C(=O)O` [α-Met], for which the equilibrium dissociation constant (Kd) was found to be 190 µM in assay [1] (read-out: Kd(α-Met)); 50 µM in assay [2] (read-out: Kd(α-Met)); 170 µM in assay [3] (read-out: Kd(α-Met)); 160 µM in assay [4] (read-out: Kd(α-Met)); 170 µM in assay [5] (read-out: Kd(α-Met)).
Regarding `CSCC[C@H](N)CC(=O)O` [β-Met], the Kd worked out at 900 µM in assay [1] (read-out: Kd(β-Met)); 1200 µM in assay [2] (read-out: Kd(β-Met)); 1000 µM in assay [3] (read-out: Kd(β-Met)); 900 µM in assay [4] (read-out: Kd(β-Met)); 900 µM in assay [5] (read-out: Kd(β-Met)).

By Kd is commonly meant the equilibrium constant for the complex coming apart.
